Several values for one entry are separate records, joined by “and”; a condition that tells them apart may be missing. Identical values can stand only once.
Experiments:
[1] = test system: human colon cancer cell lines (LoVo); conditions: in vitro, including CEA-producing cell lines; cited from earlier work
solid, human xenografts = conditions: in vivo (mice); cited from earlier work
[2] = test system: aberrant crypt foci (ACF) of the colon/rectum in AOM-induced rats; assay: ACF of the colon/rectum in AOM-induced rats, Example 2; type: in vivo, rat
Method: The in vivo study of the effect on prevention of CRC in AOM (Azoxymethane) induced rats The rats are induced s.c 1× week in 2 weeks with an AOM solution. The effect of the specific treatment is evaluated due to the number of aberrant crypt foci (ACF) of the colon/rectum in the AOM-induced rats. The aberrant crypt score is evaluated by stereomicroscopy (40×) upon staining with Giemsa-solution (6 ml conc. Giemsa in 50 ml of PBS, pH 7.1). The crypt size is categorised as small, medium, large and X-large. The number of animals is 80 with 16 in each group. The medicaments are administered with the food. The section is 18 weeks from the first dosage. […] Data for weight, food and water are registered and analysed “Small” in the third column is the sum of small and medium of the first column “Large” in the third column is the sum of large and x-large the of second column

[3] = test system: stroke, acute myocardial infarction and/or cardiovascular death; conditions: low-dose; cited from earlier work
[4] = following 3 months of therapy; cited from earlier work
[5] = count per animal, listed as Asp 200

SMILES: C=C1/C(=C\C=C2/CCC[C@]3(C)[C@@H]([C@H](C)CCCC(C)(C)O)CC[C@@H]23)C[C@@H](O)C[C@@H]1O [1,25DHC, 1,25 dihydroxycholecalciferol]
- Growth of human colon cancer cell lines [1]: inhibits the growth
- Growth of solid, human xenografts (solid, human xenografts): suppress growth

SMILES: CC(=O)Oc1ccccc1C(=O)O [ASA, acetylsalicylic acid]
- Effect on (large) ACF, in words ([2]; aspirin 200 ppm without or with Ca and 1,25 DHC): without effect
- Small ACF, individual rat ([2]; count per animal, section 18 weeks from first dosage, listed as Asp 200): 92 and 87 and 20 and 51 and 31 and 82 and 73 (2×) and 44 (2×) and 55 and 47 and 40 and 22 and 46 and 63
- Large (sum of large and x-large) ACF, individual rat [2, 5]: 15 and 9 and 2 (3×) and 8 and 5 (2×) and 3 (3×) and 6 and 1 (2×) and 7 and 4
- Large ACF, individual rat [2, 5]: 13 and 8 and 2 (3×) and 5 (4×) and 3 (3×) and 1 (2×) and 6 and 4
- Medium ACF, individual rat [2, 5]: 74 and 45 and 8 and 34 and 10 and 51 and 35 and 31 and 22 and 49 and 21 and 9 and 26 and 47 and 18 and 50
- Small (sum of small and medium) ACF, individual rat [2, 5]: 166 and 132 and 28 and 85 and 41 and 133 and 108 and 75 and 77 and 96 and 61 and 31 and 72 and 120 and 62 and 113
- Total ACF, individual rat [2, 5]: 181 and 141 and 30 and 93 and 43 and 138 and 111 and 78 and 80 and 102 and 62 and 33 and 79 and 125 and 66 and 114
- X-Large ACF, individual rat [2, 5]: 2 and 1 (3×) and 0 (11×) and 3
- Large (sum of large and x-large) ACF, Mean ([2]; group mean): 4.75
- Large ACF, Mean ([2]; group mean): 4.25
- Medium ACF, Mean ([2]; group mean): 33.13
- Small (sum of small and medium) ACF, Mean ([2]; group mean): 87.50
- Small ACF, Mean ([2]; group mean): 54.38
- Total ACF, Mean ([2]; group mean): 92.25
- X-Large ACF, Mean ([2]; group mean): 0.50
- Relative risk-reduction in relation to stroke, acute myocardial infarction and/or cardiovascular death [3]: approx. 25%

SMILES: O=C(O)c1cc(/N=N/c2ccc(S(=O)(=O)Nc3ccccn3)cc2)ccc1O [sulphasalazine]
- Relative risk reduction [4]: 0.38 (0.2 to 0.7)

Reference: patent publication US6703380B2, “Prevention of cancer” (Colotech A/S, priority 1999, dated 2004)
